Structures can show the parent of a compound that is named as a salt.
molecular target: T1, human VR1 (Homo sapiens, UniProt Q8NER1); experiment: Inhibition of Ca2+ entry in cells caused by proton (VR1 agonist); type: cell-based; details: Rat glioma (C6BU1) cells stably expressing human VR1; proton stimulation to pH 5.5; Fura 2-AM fluorescence; read-out: In vitro IC50
T1 construct: expressed in transfected cells
Description: The assay for evaluation of VR1 inhibition by the inventive compounds will be described below. The assay was intended to evaluate in vitro inhibition of Ca^2+ entry in cells caused by proton, one of the VR1 agonists.
Rat glioma (C6BU1) cells stably expressing human VR1 were suspended in 20 mM MES buffer (at pH 6.8, contg. 20 mM 2-morpholinoethanesulfonate (referred to as MES hereinafter), 115 mM NaCl, 5 mM KCl, 1 mM MgCl2 and 14 mM D-glucose) to make a cell density of 1×10^6 cells/mL. A fluorescent dye, Fura 2-AM solution (Dojindo Corporate, Cat. No. 343-05401) was added to the suspension to make a 5 μM concentration thereof. Further, Pluronic F-127 (Wako Pure Chemical Industries, Ltd., Cat. No. P6866) was added to make a 0.1% content thereof. Then, the suspension was incubated at 37° C. for 30 min. The cells were harvested and washed three times with 20 mM MES buffer. The cells were suspended again to make a cell density of 5×10^5 cells/mL. A 500-μL portion of the suspension was taken with a cuvette (MC MEDICAL, INC., Cat. No. SSR3121), to which […] MES buffer containing 250 mM CaCl2 was added to incorporate Ca^2+ into the cells. At the same time, 5 μL of a test compound solution (in a range of 100 μM to 10 nM in DMSO) was also added to provide a final concentration thereof in a range of 1 μM to 0.1 nM. Alternatively, 5 μl of DMSO was added as control to provide a final concentration of 1% DMSO. The suspension was set in an intracellular ionometer (CAF-110; JASCO) 10 min after those additions. The cells were stimulated with protons by addition of 60 μL of 20 mM MES buffer at pH 1.1 to the suspension to set its pH at 5.5. The activity of the test compound was determined as a difference between the minimum of fluorescence intensity before agonist stimulation and its maximum after the stimulation. The value of IC50 was derived from percentage of inhibition by the test compound compared with the control.

T1 sequence (Q8NER1 whole entry): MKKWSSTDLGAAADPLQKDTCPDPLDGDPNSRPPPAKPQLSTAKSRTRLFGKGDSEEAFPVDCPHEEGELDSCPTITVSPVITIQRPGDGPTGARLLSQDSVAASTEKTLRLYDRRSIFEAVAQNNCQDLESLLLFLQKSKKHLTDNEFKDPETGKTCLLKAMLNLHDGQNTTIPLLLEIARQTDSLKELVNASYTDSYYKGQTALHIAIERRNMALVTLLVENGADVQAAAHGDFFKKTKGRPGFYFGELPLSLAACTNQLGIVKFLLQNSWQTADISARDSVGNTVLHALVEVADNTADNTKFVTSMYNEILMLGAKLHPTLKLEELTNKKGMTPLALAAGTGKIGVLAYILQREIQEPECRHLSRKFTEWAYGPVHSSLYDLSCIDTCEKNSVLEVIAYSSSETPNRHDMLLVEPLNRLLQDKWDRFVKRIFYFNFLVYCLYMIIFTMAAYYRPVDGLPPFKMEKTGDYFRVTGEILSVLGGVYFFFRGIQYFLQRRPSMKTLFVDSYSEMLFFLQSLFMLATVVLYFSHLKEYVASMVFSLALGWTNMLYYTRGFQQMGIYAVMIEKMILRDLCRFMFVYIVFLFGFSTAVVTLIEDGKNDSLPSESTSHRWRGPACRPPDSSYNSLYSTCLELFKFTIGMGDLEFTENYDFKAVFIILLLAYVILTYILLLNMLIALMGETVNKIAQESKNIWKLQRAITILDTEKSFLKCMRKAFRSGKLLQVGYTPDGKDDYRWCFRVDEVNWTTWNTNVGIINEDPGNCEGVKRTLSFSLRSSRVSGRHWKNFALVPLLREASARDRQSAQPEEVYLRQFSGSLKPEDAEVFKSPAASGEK

SMILES	IC50 [nM]
CN(c1cccc(C(=O)Nc2ccc(C(C)(C)C)cc2)c1)c1ncccc1Cl [Example 1, N-(4-tert-butylphenyl)-3-[N-(3-chloropyridin-2-yl)-N-methyl-amino]benzamide, hydrochloride salt]	≤ 100
CN(c1cccc(C(=O)Nc2ccc(C(C)(C)C)cc2)c1)c1ccccn1 [Example 2, N-(4-tert-butylphenyl)-3-[N-(pyridin-2-yl)-N-methyl-amino]benzamide, hydrochloride salt]	100 to 1000
CCN(c1cccc(C(=O)Nc2ccc(C(C)(C)C)cc2)c1)c1ncccc1Cl [Example 3, N-(4-tert-butylphenyl)-3-[N-(3-chloropyridin-2-yl)-N-ethyl-amino]benzamide]	≤ 100
COc1ccc(C(=O)Nc2ccc(C(C)(C)C)cc2)cc1N(C)c1ncccc1Cl [Example 4, N-(4-tert-butylphenyl)-3-[N-(3-chloropyridin-2-yl)-N-methyl]amino-4-methoxybenzamide]	≤ 100
CN(c1cc(C(=O)Nc2ccc(C(C)(C)C)cc2)ccc1Oc1ccccc1)c1ncccc1Cl [Example 5, N-(4-tert-butylphenyl)-3-[N-(3-chloropyridin-2-yl)-N-methyl]amino-4-phenoxybenzamide]	≤ 100
Cc1c(C(=O)Nc2ccc(C(C)(C)C)cc2)cccc1N(C)c1ncccc1Cl [Example 6, N-(4-tert-butylphenyl)-3-[N-(3-chloropyridin-2-yl)-N-methyl-amino]-2-methylbenzamide]	≤ 100
Cc1ccc(C(=O)Nc2ccc(C(C)(C)C)cc2)cc1N(C)c1ncccc1Cl [Example 7, N-(4-tert-butylphenyl)-3-[N-(3-chloropyridin-2-yl)-N-methyl-amino]-4-methylbenzamide]	≤ 100
CN(c1cc(C(=O)Nc2ccc(C(C)(C)C)cc2)ccc1-c1ccccc1)c1ncccc1Cl [Example 8, N-(4-tert-butylphenyl)-3-[N-(3-chloropyridin-2-yl)-N-methyl-amino]-4-phenylbenzamide]	≤ 100
CN(c1cc(C(=O)Nc2ccc(C(C)(C)C)cc2)ccc1F)c1ncccc1Cl [Example 9, N-(4-tert-butylphenyl)-3-[N-(3-chloropyridin-2-yl)-N-methyl-amino]-4-fluorobenzamide]	≤ 100
CCN(c1cc(C(=O)Nc2ccc(C(C)(C)C)cc2)ccc1OC)c1ncccc1Cl [Example 10, N-(4-tert-butylphenyl)-3-[N-(3-chloropyridin-2-yl)-N-ethyl]amino-4-methoxybenzamide]	≤ 100
COc1ccc(C(=O)Nc2ccc(C(C)(C)C)cc2)cc1N(c1ncccc1Cl)C(C)C [Example 11, N-(4-tert-butylphenyl)-3-[N-(3-chloropyridin-2-yl)-N-isopropyl]amino-4-methoxybenzamide]	≤ 100
CN(c1cc(C(=O)Nc2ccc(C(C)(C)C)cc2)ccc1Cl)c1ncccc1Cl [Example 12, N-(4-tert-butylphenyl)-4-chloro-3-[N-(3-chloropyridin-2-yl)-N-methyl-amino]benzamide]	≤ 100
CN(c1ccccn1)c1cc(C(=O)Nc2ccc(C(C)(C)C)cc2)ccc1Cl [Example 13, N-(4-tert-butylphenyl)-4-chloro-3-[N-(pyridin-2-yl)-N-methyl-amino]benzamide]	100 to 1000
COCOc1ccc(C(=O)Nc2ccc(C(C)(C)C)cc2)cc1N(C)c1ncccc1Cl [Example 14, N-(4-tert-butylphenyl)-3-[N-(3-chloropyridin-2-yl)-N-methyl-amino]-4-methoxymethyloxybenzamide]	≤ 100
CN(c1cc(C(=O)Nc2ccc(C(C)(C)C)cc2)ccc1O)c1ncccc1Cl [Example 15, N-(4-tert-butylphenyl)-3-[N-(3-chloropyridin-2-yl)-N-methyl-amino]-4-hydroxybenzamide]	≤ 100
CC(C)Oc1ccc(C(=O)Nc2ccc(C(C)(C)C)cc2)cc1N(C)c1ncccc1Cl [Example 16, N-(4-tert-butylphenyl)-3-[N-(3-chloropyridin-2-yl)-N-methyl-amino]-4-isopropoxybenzamide]	≤ 100
CN1c2cc(C(=O)Nc3ccc(C(C)(C)C)cc3)ccc2Oc2cccnc21 [Example 17, N-(4-tert-butylphenyl)-10-methyl-10H-benzo[b]pyrido[2,3-e][1,4]oxazine-8-carboxamide]	≤ 100

SMILES	IC50 [nM]
CN(c1cc(C(=O)Nc2ccc(C(C)(C)C)cc2)ccc1OCCO)c1ncccc1Cl [Example 18, N-(4-tert-butylphenyl)-3-[N-(3-chloropyridin-2-yl)-N-methyl-amino]-4-(2-hydroxyethyl)oxybenzamide]	≤ 100
CN(c1cc(C(=O)Nc2ccc(C(C)(C)C)cc2)ccc1OCC(N)=O)c1ncccc1Cl [Example 20, N-(4-tert-butylphenyl)-4-carbamoylmethyloxy-3-[N-(3-chloropyridin-2-yl)-N-methyl-amino]benzamide]	≤ 100
CNC(=O)COc1ccc(C(=O)Nc2ccc(C(C)(C)C)cc2)cc1N(C)c1ncccc1Cl [Example 21, N-(4-tert-butylphenyl)-3-[N-(3-chloropyridin-2-yl)-N-methyl-amino]-4-(N-methylcarbamoylmethyl)oxybenzamide]	≤ 100
CN(C)C(=O)COc1ccc(C(=O)Nc2ccc(C(C)(C)C)cc2)cc1N(C)c1ncccc1Cl [Example 22, N-(4-tert-butylphenyl)-3-[N-(3-chloropyridin-2-yl)-N-methyl-amino]-4-(N,N-dimethylcarbamoylmethyl)oxybenzamide]	100 to 1000
CN(c1cc(Cl)cc(C(=O)Nc2ccc(C(C)(C)C)cc2)c1)c1ncccc1Cl [Example 23, N-(4-tert-butylphenyl)-5-chloro-3-[N-(3-chloropyridin-2-yl)-N-methyl]aminobenzamide]	≤ 100
CN(c1ccc(Cl)c(C(=O)Nc2ccc(C(C)(C)C)cc2)c1)c1ncccc1Cl [Example 24, N-(4-tert-butylphenyl)-2-chloro-5-[N-(3-chloropyridin-2-yl)-N-methyl]aminobenzamide]	100 to 1000
CN(c1cccc(C(=O)Nc2ccc(C(C)(C)C)cc2)c1O)c1ncccc1Cl [Example 25, N-(4-tert-butylphenyl)-3-[N-(3-chloropyridin-2-yl)-N-methyl]amino-2-hydroxybenzamide]	100 to 1000
COc1c(C(=O)Nc2ccc(C(C)(C)C)cc2)cccc1N(C)c1ncccc1Cl [Example 26, N-(4-tert-butylphenyl)-3-[N-(3-chloropyridin-2-yl)-N-methyl]amino-2-methoxybenzamide]	≤ 100
CN(c1cccc(C(=O)Nc2ccc(C(C)(C)C)cc2)c1OCCO)c1ncccc1Cl [Example 27, N-(4-tert-butylphenyl)-3-[N-(3-chloropyridin-2-yl)-N-methyl-amino]-2-(2-hydroxyethyl)oxybenzamide]	≤ 100
COc1ccc(C(=O)Nc2ccc(C(C)(C)C)cc2)cc1N(CCO)c1ncccc1Cl [Example 28, N-(4-tert-butylphenyl)-3-[N-(3-chloropyridin-2-yl)-N-(2-hydroxyethyl)]amino-4-methoxybenzamide]	≤ 100
COCCN(c1cc(C(=O)Nc2ccc(C(C)(C)C)cc2)ccc1Cl)c1ncccc1Cl [Example 29, N-(4-tert-butylphenyl)-4-chloro-3-[N-(3-chloropyridin-2-yl)-N-(2-methoxyethyl)amino]benzamide]	≤ 100
CC(C)(C)c1ccc(NC(=O)c2ccc(Cl)c(N(CCO)c3ncccc3Cl)c2)cc1 [Example 30, N-(4-tert-butylphenyl)-4-chloro-3-[N-(3-chloropyridin-2-yl)-N-(2-hydroxyethyl)amino]benzamide]	≤ 100
O=C(Nc1ccc(C(F)(F)F)cc1)c1ccc(Cl)c(N(CCO)c2ncccc2Cl)c1 [Example 31, 4-chloro-3-[N-(3-chloropyridin-2-yl)-N-(2-hydroxyethyl)amino]-N-(4-trifluoromethylphenyl)-benzamide, hydrochloride salt]	≤ 100
O=C(Nc1ccc(OC(F)(F)F)cc1)c1ccc(Cl)c(N(CCO)c2ncccc2Cl)c1 [Example 32, 4-chloro-3-[N-(3-chloropyridin-2-yl)-N-(2-hydroxyethyl)amino]-N-(4-trifluoromethoxyphenyl)benzamide, hydrochloride salt]	≤ 100
CN(c1cccc(C(=O)Nc2ccc(C(C)(C)C)cc2)c1)c1ccccc1Cl [Example 33, N-(4-tert-butylphenyl)-3-[N-(2-chlorophenyl)-N-methyl-amino]benzamide]	≤ 100
CC(C)COc1ccc(NC(=O)c2ccc(Cl)c(N(CCO)c3ncccc3Cl)c2)cc1 [Example 35, 4-chloro-3-[N-(3-chloropyridin-2-yl)-N-(2-hydroxyethyl)amino]-N-(4-isobutyloxyphenyl)benzamide, hydrochloride salt]	≤ 100
